Source: publication PMC4312629, “Pharmacokinetics of Etravirine Combined with Atazanavir/Ritonavir and a Nucleoside Reverse Transcriptase Inhibitor in Antiretroviral Treatment-Experienced, HIV-1-Infected Patients” (AIDS Research and Treatment, 2015)
Where two headings read alike, the source gives them in different places.

Assays:
[1] = TEACH: steady-state plasma pharmacokinetics of atazanavir and etravirine (LC-MS/MS, noncompartmental analysis); type: in vivo, HIV-1-infected patients
Method: Blood samples for analyses of atazanavir and ritonavir plasma concentrations were collected over 24 hours (before dose and 1, 2, 3, 4, 6, 9, 12, and 24 hours after dose) on the last day of the two-week pretreatment period and after Week 2 of the treatment period. Blood samples for evaluation of etravirine plasma concentrations were collected after Week 2. Atazanavir, ritonavir, and etravirine were assayed using validated liquid chromatography-mass spectrometry/mass spectrometry, with a lower limit of quantification of 250 ng/mL, 5.00 ng/mL, and 2.00 ng/mL, respectively.
Pharmacokinetic parameters were obtained using noncompartmental analysis (WinNonlin Professional version 4.1, Pharsight, Mountain View, CA, USA) and included C min, maximum plasma concentration (C max), and AUC12 h for etravirine and AUC24 h for atazanavir and ritonavir.
The least square means (LSM) of C min, C max, and AUC24 for atazanavir and ritonavir were estimated with a linear mixed-effects model, including treatment as fixed effect and subject as a random effect (SAS version 9.3, SAS Institute, Cary, NC, USA). A 90% confidence interval (CI) was constructed around the difference between the LSM of test and reference. The LSM differences and 90% CIs were retransformed to the original scale. No effect (prespecified) was declared if the 90% CIs of the LSM ratio were within the limits of 80.00–125.00%. The pharmacokinetics of etravirine was compared with historic data from DUET [21].

HIV-1 = conditions: for median etravirine FC (range): virologic failures (n = 12)
From the text: The main inclusion criteria were HIV-1-infected adults who had previously received ≥1 antiretroviral regimen but failed ≤1 PI-based regimen and were currently on a stable but failing antiretroviral regimen (viral load [VL] > 500 copies/mL at screening) (Cobas Amplicor HIV-1 VL assay, Roche Molecular Systems, Inc., Branchburg, NJ, USA; assay performed by Covance Central Laboratory Services). Patients were required to be sensitive to atazanavir, etravirine, and the selected NRTIs (with the exception of emtricitabine or lamivudine) based on resistance testing at screening using the PhenoSense GT assay (Monogram Biosciences, South San Francisco, CA, USA). […] The clinical cut-offs used for etravirine and boosted atazanavir were 2.9–10.0 and 5.2, respectively.
During the treatment session, plasma VL was determined at baseline, Weeks 2 and 4, and monthly until Week 48. Virologic failures were classified as patients who were still in the study at Week 12 and (i) who never achieved two consecutive VL values < 50 copies/mL (nonresponders) or (ii) first achieved two consecutive VL values < 50 copies/mL followed by two consecutive VL values > 50 copies/mL or discontinued for any reason with VL > 50 copies/mL (rebounders). Changes in viral phenotype and genotype in virologic failures were determined using the PhenoSense GT assay.

[2] = TEACH pharmacokinetic substudy: addition of TDF for seven days to atazanavir/ritonavir and etravirine; conditions: adding TDF to ATV/r and etravirine, both ATV/r dose groups combined (7 patients), compared with Day −1
Method: The trial consisted of a ≤4-week screening period, a pretreatment period of two weeks (atazanavir/ritonavir 300/100 mg qd and two NRTIs), and a 48-week treatment period. Patients were randomized 1 : 1, by a computer-generated interactive web response system, to receive either atazanavir/ritonavir 300/100 mg qd or 400/100 mg qd (Figure 1). […] Atazanavir/ritonavir 400/100 mg qd was given to the other group to offset the potential reduction in atazanavir exposure, while at the same time investigating if the higher dose of atazanavir might further affect etravirine exposure. At baseline, in both groups, one of the two NRTIs was switched to etravirine 200 mg bid. NRTIs were selected by the investigators based on resistance testing; however, tenofovir disoproxil fumarate (TDF) was not permitted. Patients who were intolerant to their NRTI could switch to another sensitive NRTI, excluding TDF. Tenofovir decreases both atazanavir and etravirine exposure.
Seven patients participated in the pharmacokinetic substudy, 3 patients randomized to atazanavir/ritonavir 300/100 mg qd and 4 patients randomized to atazanavir/ritonavir 400/100 mg qd. Because of the small sample size, results of the two groups were combined.

[3] = set-up: method as in PMID 20881958; conditions: Pooled DUET: ETR 200 mg bid + DRV/r 600/100 mg bid, Week 4 (reference, n = 25), cited from earlier work
[4] = healthy volunteers; etravirine 800 mg bid (formulation TF035) and ATV/r 300/100 mg qd; cited from earlier work
[5] = Test 1 (with ATV/r 300/100 mg qd, Week 2) versus pooled DUET reference (ETR + DRV/r, Week 4)
[6] = Test 2 (with ATV/r 400/100 mg qd, Week 2) versus pooled DUET reference (ETR + DRV/r, Week 4)
[7] = with ATV/r 300/100 mg qd, compared with historic control data (DUET)
[8] = with ATV/r 400/100 mg qd, compared with historic data (DUET)

## COC(=O)N[C@H](C(=O)N[C@@H](Cc1ccccc1)[C@@H](O)CN(Cc1ccc(-c2ccccn2)cc1)NC(=O)[C@@H](NC(=O)OC)C(C)(C)C)C(C)(C)C [atazanavir]
[1]; human, in vivo, Test 1: ATV/r 300/100 mg qd + one NRTI + ETR 200 mg bid, Week 2, median (range), read-out: atazanavir t max
  Tmax: 3 h
HIV-1; virologic failures, baseline to endpoint
  change in atazanavir FC: no increase

## Cc1cc(C#N)cc(C)c1Oc1nc(Nc2ccc(C#N)cc2)nc(N)c1Br [etravirine]
[1]; [5]
  etravirine AUC0–12 h LSM ratio (90% CI) of test versus reference: 1.24 (0.88–1.76)
  etravirine C max LSM ratio (90% CI) of test versus reference: 1.06 (0.78–1.46)
  etravirine C min LSM ratio (90% CI) of test versus reference: 1.07 (0.60–1.90)
[1]; [6]
  etravirine AUC0–12 h LSM ratio (90% CI) of test versus reference: 0.84 (0.60–1.18)
  etravirine C max LSM ratio (90% CI) of test versus reference: 0.87 (0.65–1.18)
  etravirine C min LSM ratio (90% CI) of test versus reference: 0.83 (0.54–1.29)
[1]; [7]
  increase in etravirine AUC12 h: 24%
  increase in etravirine C max: 6%
  increase in etravirine C min: 7%
[1]; [8]
  decrease in etravirine AUC12 h: 16%
  decrease in etravirine C max: 13%
  decrease in etravirine C min: 17%
[2]
  decrease in etravirine AUC12 h: 15%
  decrease in etravirine C max: 19%
  etravirine AUC12 h LSM ratio [90% CIs]: 0.85 [0.79–0.92]
  etravirine C max LSM ratio [90% CIs]: 0.81 [0.72–0.91]
HIV-1; at baseline
  median etravirine FC (range): 0.73 (0.4–1.7)
HIV-1; at endpoint
  median etravirine FC (range): 2.99 (0.6–40.0)
[3]; mean ± SD
  etravirine AUC0–12 h: 7964 ± 11180 ng·h/mL
  etravirine C 0 h: 545.0 ± 818.6 ng/mL
  etravirine C max: 879.6 ± 1030 ng/mL
  etravirine C min: 452.6 ± 806.0 ng/mL
[3]; median (range)
  etravirine t max: 3.95 (0.08–6.08) h
[4]
  increase in etravirine AUC24 h: 1.3 fold
  increase in etravirine C min: 1.3 fold
